Values of other authors as cited in patent US20160120822A1, “COMPOSITION CONTAINING ROTIGOTINE AND USE THEREOF AND TRANSDERMAL PATCH CONTAINING THE COMPOSITION” (Jiangsu Kangbeide Pharmaceuticals Co. Ltd., priority 2007, published 2016).

Conditions: oral formulations

clearance after oral intake: overly high
duration of action after oral intake: relatively short
SMILES: CCCN(CCc1cccs1)[C@H]1CCc2c(O)cccc2C1 [Rotigotine]
